Where a name gives a salt, the structure may show the parent alone.
System: rat jejunum
Assay: In vitro mucosal-to-serosal vancomycin transport, modified Ussing chambers, jejunum
Type: in vitro ADME
Settings: jejunum
Excerpt: We investigated regional variation in permeation of vancomycin (VCM) across various segments of rat intestine and colon in vitro by mounting isolated segments of rat intestine and colon between horizontal modified Ussing chambers. The effects of drug concentration and of addition of a p-glycoprotein inhibitor or permeation enhancer(s) as formulation additives on VCM permeation were also studied in vitro using segments of rat jejunum.
Methods: A modified Ussing system (Easy mount Ussing system, Physiological Instruments Inc., CA, Item # EM-CSYS-8) with eight sets of chambers was used for all in vitro studies; each set consisted of two parallel diffusion chambers, a heating block for temperature control, needle valves for gas flow adjustment and gas mixing, and Ag/AgCl voltage and current electrodes for measuring transepithelial voltage and for passing current.
Harvesting of required small intestinal or colon segments of a male rat was performed using experimental procedures described in the literature (Gotoh et al., J Biomol Screen (2005) 10:517-23). The harvested segments of small intestine or colon were mounted on sliders placed between the two horizontal chambers of a modified Ussing system.
VCM was dissolved in HEPES buffer pH 7.4 (Table 1) previously saturated with 100% O2 or HEPES buffer containing additives selected from permeation enhancer(s) and/or an efflux transport inhibitor (Table 2) to obtain predetermined concentrations of drug and additive(s).
Drug transport across epithelial membranes of harvested rat small intestine and colon segments, in mucosal-to-serosal (M-to-S) direction, was studied using modified Ussing Chambers. Aliquots of HEPES buffer (5 ml) were initially added to both the mucosal and serosal chambers and allowed to equilibrate for 20 minutes. The HEPES buffer in the mucosal chamber was replaced by a study sample containing VCM alone or VCM and selected additive(s) in HEPES buffer, e.g., 5 mg/mL of VCM dissolved in HEPES buffer containing 10% w/w Labrasol®. Aliquots of 0.5 mL buffer solutions were removed periodically from serosal chambers, and replaced with equal volumes of fresh warm (37±2° C.) HEPES buffer previously saturated with 100% O2. […]
Changes in transepithelial short-circuit current (in micro-Amps) and membrane resistance (in Ohms) as a function of time were monitored continuously during in vitro studies to serve as indicators of tissue viability and drug permeability, respectively. The buffer samples from the receptor chambers were analyzed for VCM content on a high pressure liquid chromatograph (HPLC; Hewlett Packard Model 1100 series).
The analysis of VCM samples was performed using a reverse phase gradient HPLC method, with a Hypersil BDS C18 column, 5 μm, 150×4.6 mm., mobile phase consisting of 5 mM potassium phosphate monobasic in water (pH 3) as solvent A and acetonitrile as solvent B at a flow rate of 1 ml/min (Farin et al., J Pharm Biomed Anal (1998) 18:367-72). The eluant was monitored by a UV/diode array detector at 280 nm.
To compare data obtained from different in vitro experiments, the apparent permeability coefficients were calculated using the equation: […]
Where dQ/dt is the linear appearance rate of mass in receiver compartment, C0 is the initial solute concentration in donor compartment, and A is the surface area (Luo et al., Drug Metab Dispos (2002) 30:763-70).

## CN[C@H](CC(C)C)C(=O)N[C@H]1C(=O)N[C@@H](CC(N)=O)C(=O)N[C@H]2C(=O)N[C@H]3C(=O)N[C@H](C(=O)N[C@H](C(=O)O)c4cc(O)cc(O)c4-c4cc3ccc4O)[C@H](O)c3ccc(c(Cl)c3)Oc3cc2cc(c3O[C@@H]2O[C@H](CO)[C@@H](O)[C@H](O)[C@H]2O[C@H]2C[C@](C)(N)[C@H](O)[C@H](C)O2)Oc2ccc(cc2Cl)[C@H]1O [Vancomycin hydrochloride]
50 mg/ml in HEPES buffer without enhancer, 0.5 hr
  Ave. Cumulative Amt VCM Released: 0.97 ± 1.37 µg
50 mg/ml in HEPES buffer without enhancer, 1.0 hr
  Ave. Cumulative Amt VCM Released: 7.94 ± 5.19 µg
50 mg/ml in HEPES buffer without enhancer, 1.5 hr
  Ave. Cumulative Amt VCM Released: 22.26 ± 4.61 µg
50 mg/ml in HEPES buffer without enhancer, 2.0 hr
  Ave. Cumulative Amt VCM Released: 46.13 ± 1.25 µg
50 mg/ml in HEPES buffer without enhancer, 2.5 hr
  Ave. Cumulative Amt VCM Released: 69.54 ± 4.20 µg
5% Gelucire ® 44/14 (w/w), 0.5 hr
  Ave. Cumulative Amt VCM Released: 0.40 ± 0.79 µg
5% Gelucire ® 44/14 (w/w), 1.0 hr
  Ave. Cumulative Amt VCM Released: 3.72 ± 0.40 µg
5% Gelucire ® 44/14 (w/w), 1.5 hr
  Ave. Cumulative Amt VCM Released: 6.81 ± 1.07 µg
5% Gelucire ® 44/14 (w/w), 2.0 hr
  Ave. Cumulative Amt VCM Released: 10.87 ± 1.53 µg
5% Gelucire ® 44/14 (w/w), 2.5 hr
  Ave. Cumulative Amt VCM Released: 14.29 ± 2.36 µg
5% Gelucire ® 44/14 + 5% Labrasol ® (w/w), 0.5 hr
  Ave. Cumulative Amt VCM Released: 0.81 ± 1.40 µg
5% Gelucire ® 44/14 + 5% Labrasol ® (w/w), 1.0 hr
  Ave. Cumulative Amt VCM Released: 3.56 ± 0.25 µg
5% Gelucire ® 44/14 + 5% Labrasol ® (w/w), 1.5 hr
  Ave. Cumulative Amt VCM Released: 6.63 ± 1.67 µg
5% Gelucire ® 44/14 + 5% Labrasol ® (w/w), 2.0 hr
  Ave. Cumulative Amt VCM Released: 9.58 ± 1.81 µg
5% Gelucire ® 44/14 + 5% Labrasol ® (w/w), 2.5 hr
  Ave. Cumulative Amt VCM Released: 13.78 ± 5.10 µg
5% Polysorbate-80 (w/w), 0.5 hr
  Ave. Cumulative Amt VCM Released: 0.00 ± 0.00 µg
5% Polysorbate-80 (w/w), 1.0 hr
  Ave. Cumulative Amt VCM Released: 2.33 ± 0.24 µg
5% Polysorbate-80 (w/w), 1.5 hr
  Ave. Cumulative Amt VCM Released: 5.69 ± 1.64 µg
5% Polysorbate-80 (w/w), 2.0 hr
  Ave. Cumulative Amt VCM Released: 10.15 ± 2.82 µg
5% Polysorbate-80 (w/w), 2.5 hr
  Ave. Cumulative Amt VCM Released: 15.99 ± 3.24 µg
5% Polysorbate-80 + 5% w/w Labrasol ®, 0.5 hr
  Ave. Cumulative Amt VCM Released: 0.00 ± 0.00 µg
5% Polysorbate-80 + 5% w/w Labrasol ®, 1.0 hr
  Ave. Cumulative Amt VCM Released: 2.36 ± 0.16 µg
5% Polysorbate-80 + 5% w/w Labrasol ®, 1.5 hr
  Ave. Cumulative Amt VCM Released: 3.85 ± 0.39 µg
5% Polysorbate-80 + 5% w/w Labrasol ®, 2.0 hr
  Ave. Cumulative Amt VCM Released: 6.05 ± 0.80 µg
5% Polysorbate-80 + 5% w/w Labrasol ®, 2.5 hr
  Ave. Cumulative Amt VCM Released: 10.12 ± 1.39 µg
5% TPGS ® + 5% Labrasol ® (w/w), 0.5 hr
  Ave. Cumulative Amt VCM Released: 0.00 ± 0.00 µg
5% TPGS ® + 5% Labrasol ® (w/w), 1.0 hr
  Ave. Cumulative Amt VCM Released: 1.26 ± 1.78 µg
5% TPGS ® + 5% Labrasol ® (w/w), 1.5 hr
  Ave. Cumulative Amt VCM Released: 3.48 ± 1.13 µg
5% TPGS ® + 5% Labrasol ® (w/w), 2.0 hr
  Ave. Cumulative Amt VCM Released: 6.40 ± 2.08 µg
5% TPGS ® + 5% Labrasol ® (w/w), 2.5 hr
  Ave. Cumulative Amt VCM Released: 10.03 ± 3.20 µg
5% w/w Labrasol® with 5% w/w Gelucire® 44/14
  Papp value compared with VCM alone: slightly higher than that of VCM alone
5% w/w Labrasol® with 5% w/w Polysorbate 80
  effect on M-to-S transport of VCM: slightly reduced VCM transport
5% w/w Labrasol® with 5% w/w Vitamin E TPGS®
  effect on M-to-S transport of VCM: slightly reduced VCM transport
10% Labrasol ® (w/w), 0.5 hr
  Ave. Cumulative Amt VCM Released: 3.65 ± 1.22 µg
10% Labrasol ® (w/w), 1.0 hr
  Ave. Cumulative Amt VCM Released: 3.72 ± 2.58 µg
10% Labrasol ® (w/w), 1.5 hr
  Ave. Cumulative Amt VCM Released: 5.52 ± 1.36 µg
10% Labrasol ® (w/w), 2.0 hr
  Ave. Cumulative Amt VCM Released: 7.48 ± 1.11 µg
10% Labrasol ® (w/w), 2.5 hr
  Ave. Cumulative Amt VCM Released: 9.93 ± 1.23 µg
10% w/w Labrasol®
  VCM transport compared with VCM alone or other excipients: lowest
Gelucire® 44/14 at 5% w/w
  effect on M-to-S transport of VCM: enhanced M-to-S transport
HEPES only, no enhancer (enhancer / bile salt study), 0.5 hr
  Ave. Cumulative Amt VCM Released: 0.00 ± 0.00 µg
HEPES only, no enhancer (enhancer / bile salt study), 1.0 hr
  Ave. Cumulative Amt VCM Released: 2.16 ± 1.47 µg
HEPES only, no enhancer (enhancer / bile salt study), 1.5 hr
  Ave. Cumulative Amt VCM Released: 4.13 ± 0.74 µg
HEPES only, no enhancer (enhancer / bile salt study), 2.0 hr
  Ave. Cumulative Amt VCM Released: 8.28 ± 1.80 µg
HEPES only, no enhancer (enhancer / bile salt study), 2.5 hr
  Ave. Cumulative Amt VCM Released: 14.45 ± 3.07 µg
No SD (sodium decanoate study), 0.5 hr
  Ave. Cumulative Amt VCM Released: 0.00 ± 0.00 µg
No SD (sodium decanoate study), 1.0 hr
  Ave. Cumulative Amt VCM Released: 0.00 ± 0.00 µg
No SD (sodium decanoate study), 1.5 hr
  Ave. Cumulative Amt VCM Released: 0.00 ± 0.00 µg
No SD (sodium decanoate study), 2.0 hr
  Ave. Cumulative Amt VCM Released: 1.43 ± 0.10 µg
No SD (sodium decanoate study), 2.5 hr
  Ave. Cumulative Amt VCM Released: 2.15 ± 0.19 µg
Polysorbate 80 at 5% w/w
  effect on M-to-S transport of VCM: enhanced M-to-S transport
